Assay results as given in patent publication US20120082976A1, “METHOD OF SCREENING FOR INSULIN SECRETION-POTENTIATING AGENTS” (KOBE UNIVERSITY, priority 2009, published 2012).

Legend:
[1] = biological target: T1, fluorescent-labeled mouse Epac2 (Mus musculus, UniProt Q9EQZ6); assay: FRET dynamic analysis of fluorescent-labeled mouse Epac2 in COS-1 cells; assay type: cell-based; parameters: expressed in transfected cells; host or cells: COS-1 cells (A1); settings: COS-1 cells that did not express SUR1, in the presence of SU agent
T1 sequence (Q9EQZ6 1-1011): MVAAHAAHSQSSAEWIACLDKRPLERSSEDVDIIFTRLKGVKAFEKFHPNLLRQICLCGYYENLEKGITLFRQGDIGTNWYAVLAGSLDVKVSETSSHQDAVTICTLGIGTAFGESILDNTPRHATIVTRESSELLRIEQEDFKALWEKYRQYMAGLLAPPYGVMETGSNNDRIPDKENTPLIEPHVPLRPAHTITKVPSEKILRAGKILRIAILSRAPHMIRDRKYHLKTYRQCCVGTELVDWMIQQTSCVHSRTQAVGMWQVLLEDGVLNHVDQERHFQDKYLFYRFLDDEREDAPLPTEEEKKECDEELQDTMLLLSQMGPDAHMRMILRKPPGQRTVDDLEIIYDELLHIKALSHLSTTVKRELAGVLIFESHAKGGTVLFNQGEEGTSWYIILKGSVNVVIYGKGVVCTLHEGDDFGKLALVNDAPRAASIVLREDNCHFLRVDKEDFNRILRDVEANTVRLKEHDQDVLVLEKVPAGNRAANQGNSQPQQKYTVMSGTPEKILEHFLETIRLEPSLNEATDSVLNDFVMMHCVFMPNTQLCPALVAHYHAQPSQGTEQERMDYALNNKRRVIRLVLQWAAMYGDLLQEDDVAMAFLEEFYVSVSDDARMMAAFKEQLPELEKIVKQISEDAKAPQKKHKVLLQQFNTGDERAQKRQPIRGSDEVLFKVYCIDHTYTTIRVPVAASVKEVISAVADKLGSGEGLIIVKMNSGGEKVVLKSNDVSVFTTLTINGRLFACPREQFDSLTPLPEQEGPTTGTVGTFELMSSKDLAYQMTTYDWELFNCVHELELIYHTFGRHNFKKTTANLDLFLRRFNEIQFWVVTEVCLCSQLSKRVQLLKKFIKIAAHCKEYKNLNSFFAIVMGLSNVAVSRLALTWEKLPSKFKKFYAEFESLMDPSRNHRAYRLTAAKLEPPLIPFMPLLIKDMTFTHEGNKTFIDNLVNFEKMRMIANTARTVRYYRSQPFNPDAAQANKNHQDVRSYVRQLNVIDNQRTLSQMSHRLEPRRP
Procedure: Two days before the day for measurement, the cells were transformed with fluorescent-labeled mouse Epac2 expression vector and then cultured. On the day before the day for measurement, the cells were transferred onto the glass culture dishes of 25 mm in diameter, and culture was continued. About 48 hours after the transformation, the culture medium was replaced with HEPES-KRB buffer (HEPES buffer containing 133.4 mM NaCl, 4.7 mM KCl, 1.2 mM KH2PO4, 1.2 mM MgSO4, 2.5 mM CaCl2, 5.0 mM NaHCO3, 2.8 mM glucose, and 0.2% BSA (pH 7.4)). The cells were observed through a confocal microscope (FV1000, Olympus Corporation) equipped with the UPlanSApo objective lens (100*oil/1.40 NA) to set the focus of the lens on the cells, and excitation light with the wavelength of 440 nm was irradiated using 440 nm LD laser (FV5-LDPSU, Olympus Corporation) at the power of 0.5%. Fluorescent light emitted from thus excited fluorescent-labeled mouse Epac2 was observed through two fluorescence filters, 480DF30 (for 480 nm light) and 535DF25 (for 535 nm light) as dual images of the fluorescent light every 5 seconds for dynamic analysis of the emitted fluorescent light. The results of the dynamic analysis, after first calculating the ratio R in intensity of fluorescence at 535 nm to 480 nm at each measurement (ratio of intensity at 535 nm/intensity at 480 nm), were expressed in the value which was derived by dividing the ratio by the initial value R0 (ratio of intensity at 535 nm/intensity at 480 nm before addition of an agent), i.e., R/R0. All the observation was carried out at room temperature.

Rap1 [2] = assay: GTP-RAP1 pull-down assay in MIN6 cells; assay type: cell-based
Procedure: (§1) GTP-RAP1 pull-down assay was performed according to the method described in Shibasaki T. et al. Proc. Natl. Acad. Sci. USA 104, 19333-9 (2007). Namely, MIN6 cells which had been let stand for 30 minutes in HEPES-KRB buffer in advance were cultured for further 15 minutes in HEPES-KRB buffer containing an agent of interest and 2.8 mM glucose. Then, the cells were fractured, and to the cell lysate thus obtained was added glutathione resin which carried GST-Ra1GDS-RID bound to it (SIGMA). After 90 minutes of incubation at 4 deg C., the resin was separated by centrifugation, washed several times with HEPES-KRB buffer, and subjected to SDS-PAGE gel electrophoresis. After the SDS-PAGE gel electrophoresis, Western blotting was carried to transfer the protein onto PVDF membrane, and Rap1 transferred on the membrane was detected with anti-Rap1 antibody (Santa Cruz Biotechnology, Inc., USA).
Epac2 has the GEF activity and activates Rap1 by converting it to GTP-bound Rap1 through its binding to […]. This reaction constitute part of signal transmission for insulin secretion in beta-cells. Thus, it was examined whether or not Rap1 is activated with SU agents, using MIN6 cells, which originate from beta-cells. Activation of Rap1 was measured by determining GTP-bound Rap1, using GTP-RAP1 pull-down assay.

Rap1 [3] = assay: GTP-RAP1 pull-down assay in Epac2-lacking pancreatic beta-cells transformed with mouse Epac2 expression vector; assay type: cell-based
Procedure: (§2) Pancreatic beta-cells lacking Epac2 were obtained according to the technique disclosed in Shibasaki T. et al. Proc. Natl. Acad. Sci. USA 104, 19333-9 (2007), by isolating from the mice which were bred after crossing Epac2-lacking mice with IT6 mice, in which SV40 large T […] is expressed under the control of human insulin gene promoter. The method for preparing IT6 mice is described in Miyazaki J, et al., Endocrinology, 127, 126-132 (1990). Further, MIN6 cells were prepared by the technique disclosed in Japanese patent application publication No. 2002-125661.
as §1

Rap1 [4] = assay: GTP-RAP1 pull-down assay in Epac2-lacking pancreatic beta-cells; assay type: cell-based, mouse
Procedure: as §2, §1
Then, using Epac2-lacking pancreatic beta-cells, examination was performed as to whether Rap1 was activated by SU agents. Activation of Rap1 was measured by determining the amount of GTP-bound Rap1 using GTP-RAP1 pull-down assay.

pancreatic islets = assay: Insulin secretion experiment, pancreatic islets of wild-type and Epac2-lacking mice; assay type: cell-based, mouse
Procedure: Mouse pancreatic beta-cells were isolated from wild-type mice (C57BL/6) or Epac2-lacking mice, and cultured for two days. The mouse pancreatic beta-cells were let stand in HEPES-KRB buffer containing 2.8 mM glucose for 30 minutes. The cells then were dispensed to […] in such a manner that five pancreatic islets of a like size were contained in each well, and cultured for 15 minutes in 100 micro L HEPES-KRB buffer containing an agent of interest and 2.8 mM glucose. The amount of insulin released in the medium and that in the cells were measured using an insulin assay kit (Medical Biological Laboratories Co. Ltd.). The amount of secreted insulin was normalized by the amount of insulin in the cells.
The effect of SU agents on insulin secretion via Epac2 was examined in an insulin secretion experiment using pancreatic islets. First, pancreatic islets obtained from wild-type mice and Epac2-lacking mice were stimulated with glucose, and the amount of secreted insulin was determined.

mouse Epac2 = biological target: T2, mouse Epac2 (Mus musculus, UniProt Q9EQZ6); assay: Sulfonylurea binding experiment with tritium-labeled glibenclamide in COS-1 cells transformed with mouse Epac2 expression vector
T2 construct: expressed in transfected cells; host or cells: COS-1 cells
T2 sequence (Q9EQZ6 1-1011): T1 sequence (Q9EQZ6 1-1011)
Source text: COS1 cells were transformed with mouse Epac2 expression vector. […] The membrane was washed four times with the same buffer which had been ice cooled, and then measured for radioactivity on a liquid scintillation counter.

[5] = biological target: T1, fluorescent-labeled mouse Epac2; assay: FRET dynamic analysis of fluorescent-labeled mouse Epac2 in MIN6 cells; assay type: cell-based; parameters: expressed in transfected cells; host or cells: MIN6 cells (A3); settings: in the presence of SU agent
Procedure: All the observation was carried out at room temperature.

[6] = clinical report (Non-patent document 19); cited from earlier work
[7] = Oral glucose tolerance test in wild-type and Epac2-lacking mice; assay type: in vivo, mouse; settings: oral 1.5 g/kg glucose plus 100 mg/kg tolbutamide
Procedure: Peripheral blood was sampled at a predetermined point of time, and serum insulin concentration and blood glucose concentration were measured with an ELISA kit (mftd. by Morinaga) and Antisense III glucose analysis device (Bayer Yakuhin, Ltd.), respectively.
Next, glucose was administered together with tolbutamide, and measurement was conducted in the same manner.

[8] = concentration-dependent, 15 minutes, 2.8 mM glucose

SMILES | change in R/R0 value (FRET) [1] | amount of GTP-bound Rap1 (activation of Rap1) (Rap1 [2]; [8]) | activation of Rap1 (Rap1 [3]) | activation of Rap1 (Rap1 [4]) | amount of GTP-bound Rap1 (activation of Rap1) (Rap1 [2]; concentrations higher than 100 nM) | insulin secretion, islets from Epac2-lacking mice compared with wild-type mice (pancreatic islets; 10 nM) | IC50 (mouse Epac2) [µM] | change in R/R0 value (FRET) [5] | glycemic control in a patient with neonatal diabetes [6] | insulin secretion, islets from Epac2-lacking mice compared with wild-type mice (pancreatic islets; 100 nM) | blood glucose concentration, Epac2-lacking mice compared with wild-type mice [7] | serum insulin concentration, Epac2-lacking mice compared with wild-type mice [7]
CC(=O)c1ccc(S(=O)(=O)NC(=O)NC2CCCCC2)cc1 [acetohexamide] | decrease in R/R0 | increase the amount of GTP-bound Rap1 | found to activate Rap1 | activated no Rapt |  |  |  |  |  |  |  | 
CCCNC(=O)NS(=O)(=O)c1ccc(Cl)cc1 [chlorpropamide] | decrease in R/R0 | increase the amount of GTP-bound Rap1 | found to activate Rap1 | activated no Rapt |  |  |  |  |  |  |  | 
COc1ccc(Cl)cc1C(=O)NCCc1ccc(S(=O)(=O)NC(=O)NC2CCCCC2)cc1 [glibenclamide] | decrease in R/R0 | increase the amount of GTP-bound Rap1 | found to activate Rap1 | activated no Rapt | failed to increase it | markedly low insulin secretion | 0.025 | concentration-dependent decrease in R/R0 value |  |  |  | 
Cc1ccc(S(=O)(=O)NC(=O)NN2CC3CCCC3C2)cc1 (stereo not shown) [gliclazide] | no change in R/R0 value | no effect on the amount of GTP-bound Rap1 |  |  |  | no significant difference |  |  | not effective |  |  | 
Cc1cnc(C(=O)NCCc2ccc(S(=O)(=O)NC(=O)NC3CCCCC3)cc2)cn1 [glipizide] | decrease in R/R0 | increase the amount of GTP-bound Rap1 | found to activate Rap1 | activated no Rapt |  |  |  |  |  |  |  | 
CC(C)[C@H]1CC[C@H](C(=O)N[C@H](Cc2ccccc2)C(=O)O)CC1 [nateglinide] | no change in R/R0 value |  | did not activate Rap1 |  |  |  |  |  |  |  |  | 
CCCCNC(=O)NS(=O)(=O)c1ccc(C)cc1 [tolbutamide] | decrease in R/R0 |  | found to activate Rap1 | activated no Rapt |  |  | 240 | concentration-dependent decrease in R/R0 value |  | markedly low insulin secretion | high in the Epac2-lacking mice compared with the wild-type mice | low in the Epac2-lacking mice compared with the wild-type mice
